We go through nine molecules from PubChem BioAssay (NCI).

Among the test systems are EKVX NSCLC; IGROV1 ovarian; UACC-62 melanoma; KM12 colon; SK-MEL-5 melanoma; OVCAR-8 ovarian; HOP-62 NSCLC; 786-0 renal; MDA-MB-231 breast; RPMI-8226 leukemia; NCI-H226 lung; SNB-19 CNS; NCI-H460 lung; NCI-H23 lung; HOP-92 NSCLC; SK-OV-3 ovarian.
Common to all, as to experiment: DTP human tumour cell line panel, 48 h

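A five-concentration, 48-hour dose response in 96-well plates underlies each endpoint, interpolated linearly between surrounding concentrations. Definition used: TGI = concentration required for complete inhibition of growth.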

On to `CCOC(=O)C1CCCc2sc(N)c(C#N)c21` (centres undefined), for which the TGI in the test on EKVX NSCLC, in the test on IGROV1 ovarian, in the test with UACC-62 melanoma, with KM12 colon, in the test with SK-MEL-5 melanoma and in the test on OVCAR-8 ovarian was above 100 µM each time. Besides, the TGI with HOP-62 NSCLC, in the test on 786-0 renal, with MDA-MB-231 breast, in the test on RPMI-8226 leukemia, with NCI-H226 lung and in the test with SNB-19 CNS was above 100 µM each time. In addition, the total growth inhibition concentration (TGI) in the test with NCI-H460 lung, in the test with NCI-H23 lung and with HOP-92 NSCLC was above 100 µM each time.
For the molecule `O=C1c2ccccc2CC12Cc1cc3c(cc1C2)CCC3`, the TGI is above 100 µM in the test on EKVX NSCLC; above 100 µM in the test on IGROV1 ovarian; 93.9 µM in the test on KM12 colon; 35.8 µM in the test with SK-MEL-5 melanoma; above 100 µM in the test on OVCAR-8 ovarian; above 100 µM in the test with HOP-62 NSCLC. In addition, the TGI in the test with 786-0 renal, in the test on SK-OV-3 ovarian, with MDA-MB-231 breast, in the test on RPMI-8226 leukemia, in the test on NCI-H226 lung and with SNB-19 CNS was above 100 µM each time. Also, the concentration for total growth inhibition (TGI) in the test on NCI-H460 lung, with NCI-H23 lung and in the test on HOP-92 NSCLC was above 100 µM each time.
Consider `Cc1cccc(N=Nc2c(C)nn(C(=O)CC(=O)Nc3ccc(Cl)cc3)c2C)c1`, for which the TGI in the test on EKVX NSCLC is 96.9 µM; in the test on UACC-62 melanoma it was above 100 µM; with KM12 colon, above 100 µM; in the test on SK-MEL-5 melanoma, above 100 µM; in the test with OVCAR-8 ovarian it was above 100 µM; with HOP-62 NSCLC it was above 100 µM. Also, the TGI with 786-0 renal, in the test with SK-OV-3 ovarian, with MDA-MB-231 breast, with RPMI-8226 leukemia, in the test on NCI-H226 lung and in the test on SNB-19 CNS was above 100 µM each time. Further, the figures for the TGI in the test on NCI-H460 lung, in the test on NCI-H23 lung and in the test on HOP-92 NSCLC were above 100 µM, above 100 µM and 79.6 µM, respectively.
With `CC(NNC(=O)c1ccncc1)c1ccccc1` (centres undefined), the TGI in the test on EKVX NSCLC, in the test with IGROV1 ovarian, in the test with UACC-62 melanoma, with KM12 colon, in the test with SK-MEL-5 melanoma and with OVCAR-8 ovarian was above 100 µM each time. The TGI in the test on HOP-62 NSCLC, in the test with 786-0 renal, in the test with SK-OV-3 ovarian, in the test on MDA-MB-231 breast, with RPMI-8226 leukemia and with NCI-H226 lung was above 100 µM each time. For the same molecule, the TGI in the test with SNB-19 CNS, in the test with NCI-H23 lung and in the test on HOP-92 NSCLC was above 100 µM in each case.
For `O=C1c2cc3c(cc2CC12Cc1ccccc1C2)CCC3`, the TGI in the test with EKVX NSCLC is above 100 µM; with IGROV1 ovarian, above 100 µM; with KM12 colon it was 56.9 µM; in the test on SK-MEL-5 melanoma, 32.2 µM; in the test on OVCAR-8 ovarian, 76.7 µM; in the test with HOP-62 NSCLC it was 92 µM. The TGI with 786-0 renal is 64.8 µM; in the test on SK-OV-3 ovarian, above 100 µM; with MDA-MB-231 breast, 66.7 µM; in the test on RPMI-8226 leukemia it was 68.2 µM; in the test with NCI-H226 lung, 73.8 µM; in the test with SNB-19 CNS, above 100 µM. Besides, the TGI was above 100 µM in the test with NCI-H460 lung, above 100 µM in the test with NCI-H23 lung and 64.3 µM in the test on HOP-92 NSCLC.
Take `O=c1[nH]c2nc3ccccc3c(=O)n2/c1=C/c1ccccc1`: the TGI with EKVX NSCLC, in the test on IGROV1 ovarian, with UACC-62 melanoma, with KM12 colon, with SK-MEL-5 melanoma and with OVCAR-8 ovarian was above 100 µM each time. Moreover, the TGI with HOP-62 NSCLC is above 100 µM; with 786-0 renal, 96.6 µM; with SK-OV-3 ovarian, above 100 µM; in the test with MDA-MB-231 breast it was above 100 µM; in the test on RPMI-8226 leukemia, above 100 µM; with NCI-H226 lung, above 100 µM. In addition, the TGI in the test on SNB-19 CNS is 55.9 µM; in the test on NCI-H23 lung, above 100 µM; with HOP-92 NSCLC, above 100 µM.
On to `COc1cc(C2c3cc4c(cc3OC(NNC(N)=S)C2C)OCO4)cc(OC)c1OC` (centres undefined), for which the TGI in the test on EKVX NSCLC is above 100 µM; in the test on IGROV1 ovarian, above 100 µM; in the test on UACC-62 melanoma, above 100 µM; in the test with KM12 colon, above 35.6 µM; in the test with OVCAR-8 ovarian, above 55.1 µM; in the test on HOP-62 NSCLC, above 100 µM. Moreover, the TGI was above 100 µM with 786-0 renal; above 100 µM in the test on SK-OV-3 ovarian; 8.68 µM with MDA-MB-231 breast; 0.847 µM in the test with RPMI-8226 leukemia; 21 µM in the test with NCI-H226 lung; above 100 µM in the test with SNB-19 CNS. Further, the TGI with NCI-H460 lung is above 100 µM; with HOP-92 NSCLC it was 7.9 µM.
Turning to `CSc1nc(-c2ccccc2)[nH]c(=O)n1`, the TGI in the test on EKVX NSCLC, in the test with IGROV1 ovarian, in the test on UACC-62 melanoma, with KM12 colon, in the test with SK-MEL-5 melanoma and in the test on OVCAR-8 ovarian was above 100 µM in each case. Moreover, the TGI with HOP-62 NSCLC, in the test on 786-0 renal, in the test on SK-OV-3 ovarian, with MDA-MB-231 breast, in the test with RPMI-8226 leukemia and in the test on NCI-H226 lung was above 100 µM each time. Also, the TGI in the test with SNB-19 CNS, in the test with NCI-H23 lung and in the test on HOP-92 NSCLC was above 100 µM in each case.
Turning to `Cn1c(-c2ccccc2)cc(-c2ccc3c(c2)OCO3)c1-c1ccsc1`, the TGI in the test with EKVX NSCLC, with UACC-62 melanoma, in the test on KM12 colon, in the test on SK-MEL-5 melanoma, in the test on OVCAR-8 ovarian and in the test on HOP-62 NSCLC was above 100 µM throughout. In addition, the total growth inhibition concentration (TGI) with 786-0 renal, in the test on SK-OV-3 ovarian, with MDA-MB-231 breast, with RPMI-8226 leukemia, in the test on NCI-H226 lung and in the test on SNB-19 CNS was above 100 µM each time. Besides, the TGI with NCI-H460 lung, in the test on NCI-H23 lung and with HOP-92 NSCLC was above 100 µM each time.
